The NIST ThermoML archive (doi:10.1021/acs.jced.7b01135)
Numbers after ± are expanded uncertainties.

How the values were obtained:
[1] = refractive index (Na D-line) (dimensionless); settings: 298.2 K; 101.33 kPa; Liquid; Standard Abbe refractometry
[2] = refractive index (Na D-line) (dimensionless); wn = mass fraction of the nth substance listed; settings: 101.3 kPa, Liquid, Standard Abbe refractometry
[3] = wn = mass fraction of the nth substance listed; settings: 298.2 K; 101.3 kPa; Liquid; Pycnometric method; w1 = 0.2
[4] = 298.2 K; 101.33 kPa; Liquid; Pycnometric method

Work on `O` [water] yielded a refractive index [1] of 1.3324 ± 0.012.
With `CCCCCCCCCCO` [decan-1-ol] + O the refractive index ([2]; 298.2 K, w2 = 0.9975) was 1.33545 ± 0.012, the refractive index ([2]; 308.2 K, w2 = 0.9938) was 1.33463 ± 0.012 and the refractive index ([2]; 318.2 K, w2 = 0.9901) was 1.33317 ± 0.012. It also gave a refractive index ([2]; 328.2 K, w2 = 0.9864) of 1.33224 ± 0.012.
With `O=C(O)CC(O)(CC(=O)O)C(=O)O` [citric acid] + O the mass density [3] was 1085.86 ± 2 kg/m3 and the refractive index ([2]; 298.2 K, w1 = 0.2) was 1.356 ± 0.012.
For `CCCCCCCCCCO` [decan-1-ol], the mass density [4] was 826.86 ± 2 kg/m3 and the refractive index [1] was 1.4346 ± 0.012.
